Patent US20260356860A1, “2-SUBSTITUTED 3,4A,5,7,8,8A-HEXAHYDRO-4H-THIOPYRANO[4,3-DJPYRIMIDIN-4-ONES FOR WOUND TREATMENT” (priority 2022, published 2026)

Assays:
[1] = test system: HEK293 SuperTOPFlash reporter cells, Wnt promoter; assay: HEK CELL Wnt Assay (luciferase reporter); assay type: cell-based; conditions: serial dilutions, with or without 50 ng/mL Wnt3a; 18 h
How it was run: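 Reporter cells were seeded 24 h before dosing with serial dilutions ([…] to 1 nM), with or without 50 ng/mL Wnt3a, and incubated 18 h. Untreated cells served as negative control, with luciferase as read-out.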

[2] = target: T1, Tankyrase 2 (TNKS2) (Homo sapiens, UniProt Q9H2K2); assay: TNK2 Binding Assay (Tankyrase 2 ribosylation, chemiluminescence); assay type: biochemical
T1 sequence (Q9H2K2 1-1166): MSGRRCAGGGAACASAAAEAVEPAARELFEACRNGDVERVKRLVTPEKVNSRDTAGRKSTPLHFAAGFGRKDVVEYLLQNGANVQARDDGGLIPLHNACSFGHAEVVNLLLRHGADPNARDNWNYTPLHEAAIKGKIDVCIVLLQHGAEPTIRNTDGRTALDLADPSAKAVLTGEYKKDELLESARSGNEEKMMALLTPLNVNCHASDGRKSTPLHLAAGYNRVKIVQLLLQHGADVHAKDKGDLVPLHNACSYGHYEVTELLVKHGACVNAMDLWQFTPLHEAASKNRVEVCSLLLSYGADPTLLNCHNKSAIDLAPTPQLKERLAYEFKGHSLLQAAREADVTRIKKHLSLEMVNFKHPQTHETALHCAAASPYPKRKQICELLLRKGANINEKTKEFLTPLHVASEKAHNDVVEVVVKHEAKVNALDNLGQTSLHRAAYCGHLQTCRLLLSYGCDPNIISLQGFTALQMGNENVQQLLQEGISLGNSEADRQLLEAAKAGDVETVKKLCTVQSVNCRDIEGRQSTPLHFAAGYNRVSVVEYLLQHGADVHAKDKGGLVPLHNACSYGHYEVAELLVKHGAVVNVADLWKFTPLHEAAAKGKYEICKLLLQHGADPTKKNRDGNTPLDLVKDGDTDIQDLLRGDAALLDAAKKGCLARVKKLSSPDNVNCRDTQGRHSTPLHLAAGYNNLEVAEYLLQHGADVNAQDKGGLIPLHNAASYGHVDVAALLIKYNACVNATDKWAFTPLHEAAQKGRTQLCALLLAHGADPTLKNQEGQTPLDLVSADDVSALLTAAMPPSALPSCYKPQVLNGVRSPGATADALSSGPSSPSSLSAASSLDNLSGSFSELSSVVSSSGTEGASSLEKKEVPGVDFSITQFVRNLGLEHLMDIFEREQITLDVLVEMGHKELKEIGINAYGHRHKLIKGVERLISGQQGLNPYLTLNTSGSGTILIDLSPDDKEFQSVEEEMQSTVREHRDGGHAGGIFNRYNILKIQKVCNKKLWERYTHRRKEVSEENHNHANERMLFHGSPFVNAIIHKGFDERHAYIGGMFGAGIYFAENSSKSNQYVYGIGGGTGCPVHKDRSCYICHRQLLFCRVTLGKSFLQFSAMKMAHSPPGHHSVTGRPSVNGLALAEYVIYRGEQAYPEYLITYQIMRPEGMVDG

In the case of `O=c1[nH]c(-c2ccc(B(O)O)cc2)nc2c1CSCC2` [Compound 1, (4-(4-oxo-3,5,7,8-tetrahydro-4H-thiopyrano[4,3-d]pyrimidin-2-yl)phenyl)boronic acid], the IC50 [1] is reported as 2000 nM and the IC50 [2] is reported as 26 nM.

`O=c1[nH]c(-c2ccc(-c3ccc(Br)nc3)cc2)nc2c1CSCC2` [Compound 7, 2-(4-(6-bromopyridin-3-yl)phenyl)-3,5,7,8-tetrahydro-4H-thiopyrano [4,3-d]pyrimidin-4-one] was tested, and the IC50 [1] was 17 nM and the IC50 [2] was 5 nM.

With `CC(C)(OCCO)c1ccc(-c2nc3c(c(=O)[nH]2)CSCC3)cc1` [Compound 8, 2-(4-(2-(2-hydroxyethoxy)propan-2-yl)phenyl)-3,5,7,8-tetrahydro-4H-thiopyrano[4,3-d]pyrimidin-4-one] the IC50 [1] was 4.4 nM and the IC50 [2] was 3.16 nM.

`O=c1[nH]c(-c2ccc(-c3ccc(B(O)O)cc3)cc2)nc2c1CSCC2` [Compound 10, (4′-(4-oxo-3,5,7,8-tetrahydro-4H-thiopyrano[4,3-d]pyrimidin-2-yl)-[1,1′-biphenyl]-4-yl)boronic acid] gave an IC50 [1] of 5 nM and an IC50 [2] of 3.29 nM.

`COC(=O)NCCOC(C)(C)c1ccc(-c2nc3c(c(=O)[nH]2)CSCC3)cc1` [Compound 18, methyl (2-((2-(4-(4-oxo-3,5,7,8-tetrahydro-4H-thiopyrano[4,3-d]pyrimidin-2-yl)phenyl)propan-2-yl)oxy)ethyl)carbamate] was tested, and the IC50 [1] was 6 nM and the IC50 [2] was 4 nM.
